Data set [1] addresses AT-DNA (poly dAdT-poly dAdT). Kind of data set: Fluorimetric titration with AT-DNA, Scatchard equation. The data set is classed as binding. To be noted: pH 7, sodium cacodylate buffer, I = 0.05 M. Here is the method: (§1) Experiments were conducted in an aqueous buffer solution (pH = 7.0 or pH= 5.0, I = 0.05 M, sodium cacodylate buffer). For the UV-Vis spectra were used Varian Cary 100 Bio spectrometer, for fluorescence spectra we used the Varian Cary Eclipse fluorimeter and for CD spectra we used the JASCO J815 spectropolarimeter, all conducted at 25.0 °C using appropriate quartz cuvettes (path length: 1 cm).
(§2) Polynucleotides were purchased as noted: poly dAdT-poly dAdT, poly dGdC-poly dGdC, poly A-poly U (ds-RNA), (Sigma-Aldrich, Schnelldorf, Germany), calf thymus (ct)-DNA (Sigma-Aldrich, Schnelldorf, Germany) and dissolved in sodium cacodylate buffer, I = 0.05 M, pH = 7.0. The ct-DNA was sonicated and filtered through a 0.45 µm filter to obtain mostly short (ca. 100 base pairs) rod-like B-helical DNA fragments. The concentration of DNA or RNA was determined spectroscopically as the c(nucleobase) using producer-provided molar extinction coefficients.
(§3) Fortunately, strong emission from the compounds studied allowed fluorimetric titrations to be performed at much lower concentrations of the dyes (c = 5 × 10^−8 M), thus preventing precipitation of non-methylated 1 or 2, and allowing for the collection of numerous data points at excess of DNA/RNA binding sites over c(dye). […]

A further data set has as its system A549 cells. Briefly: Confocal time-lapse imaging under irradiation. It is filed as cell-based, human. To be noted: A549, 1 µM (Figure 9), irradiated at 350 nm. Here is the method: Cells were left in the cell incubator for 90 min to allow the compound to enter the cells. After incubation, the medium was replaced with 500 μL of fresh medium. […]
In a further data set the test system is poly dAdT-poly dAdT. Kind of data set: Thermal denaturation of poly dAdT-poly dAdT (∆Tm). It is filed as binding. To be noted: I = 50 mM. Here is the method:
as §1, §2
(§4) Thermal denaturation of ds-DNA, ds-RNA and their complexes with studied compounds was performed by monitoring the absorption change at 260 nm as a function of temperature. Tm values are the midpoints of the transition curves determined from the maximum of the first derivative and checked graphically by the tangent method. The ∆Tm values were calculated by subtracting the Tm of the free nucleic acid from the Tm of the complex. Every ∆Tm value here reported was the average of at least two measurements. The error in ∆Tm is ± 0.5 °C.

The target of data set [2] is GC-DNA (poly dGdC-poly dGdC). Kind of data set: Fluorimetric titration with GC-DNA, Scatchard equation. It is filed as binding. The note with it: pH 7, sodium cacodylate buffer, I = 0.05 M. As for the experimental part: as §1, §2, §3
The test system of data set [3] is ct-DNA. Briefly: Fluorimetric titration with ct-DNA, Scatchard equation. Further details: key: The changes were too small to allow an accurate calculation of the binding constant. The note with it: I = 0.05 M. The data set is classed as binding, calf. As for the experimental part: as §1, §2
Fortunately, strong emission from the compounds studied allowed fluorimetric titrations to be performed at much lower concentrations of the dyes (c = 5 × 10^−8 M), thus preventing precipitation of non-methylated 1 or 2, and allowing for the collection of numerous data points at excess of DNA/RNA binding sites over c(dye). […] Intriguingly, mixed sequence ct-DNA caused emission quenching of 1M at an excess of dye over ct-DNA (r > 0.1), and such quenching could be attributed to aggregation of 1M along DNA, while at an excess of ct-DNA over dye (r << 0.1), emission increased. The emission of 2M was indiscriminately quenched by all ds-DNA/RNA (Figure 2d).
Processing of fluorimetric titrations by means of the Scatchard equation [56, 57] yielded binding constants (Table 2). […] Affinities of 1 and 2 toward BSA were the same at both pH values, supporting the conclusion that neutral forms of 1 and 2 were bound.

Another data set concerns the target AU-RNA (poly A-poly U). Briefly: Fluorimetric titration with AU-RNA, Scatchard equation. The data set is classed as binding. The note with it: pH 7, sodium cacodylate buffer, I = 0.05 M. As for the experimental part:
as §1, §2, §3

In data set [4] the test system is poly dAdT-poly dAdT (AT-DNA, p(dAdT)2) (DNA, polymer) AT. Kind of data set: fluorimetric titration, Scatchard. To be noted: Na+ (sodium cacodylate, I = 0.05 M); pH 7.0, 25 °C; Scatchard n fixed at 0.2 or 0.3; per base.
A further data set has as its system WI-38 cells. Briefly: MTT cell viability assay, WI-38, with or without UV light. The data set is classed as cell-based, human. To be noted: WI-38, 10 μM and 1 μM, without UV. As for the experimental part: Cells. Commercially available from American Type Culture Collection (ATCC), human epithelial lung adenocarcinoma A549 (ATCC® CCL-185™) and human normal lung fibroblast WI-38 (ATCC® CCL-75™) were grown according to supplier’s conditions, namely in Dulbecco Modified Eagle’s Medium (DMEM, Sigma Aldrich, St. Louis, MO, USA) supplemented with 10% of fetal bovine serum (FBS, Sigma Aldrich, USA). Cells were incubated in the cell incubator (Thermo Fischer Scientific, Waltham, MA, USA) at 37 °C and 5% CO2 in a humidified atmosphere.
Cell viability assay. In order to obtain a 10 mM stock solution chemical compounds (2M, 1, and 1M) were sterilely diluted in an appropriate volume of dimethyl sulfoxide solution (DMSO, Gram-Mol, Zagreb, Croatia). Solutions were kept in the dark and stored at 4 °C. The cytotoxic effects of each compound were assayed on A549 and WI-38 cells. […] Briefly, cells were seeded in 96-well tissue culture plates and 24 h later treated with 2M, 1, or 1M in the concentration range of 10–0.1 μM. Cells treated with the same dilutions of DMSO represented the control, while cells treated only with DMEM (10% FBS) represented the negative control. […] The resulting MTT-formazan products were dissolved using DMSO, and their absorbance at 600 nm was measured using a microplate reader. […]

The test system of data set [5] is poly A-poly U (AU-RNA, pApU) (RNA, polymer) A/U. Kind of data set: UV thermal denaturation at 260 nm. The note with it: Na+ (sodium cacodylate, I = 50 mM); pH 7.0; r = [compound]/[polynucleotide] = 0.2; error ± 0.5 °C; per base.
Data set [6] deals with pApU (poly A-poly U, ds-RNA). Briefly: Thermal denaturation of pApU ds-RNA (∆Tm). It is filed as binding. The note with it: I = 50 mM. As for the experimental part:
as §1, §2, §4

For data set [7], the system named is poly A-poly U (AU-RNA, pApU) (RNA, polymer) A/U. Kind of data set: fluorimetric titration, Scatchard. The note with it: Na+ (sodium cacodylate, I = 0.05 M); pH 7.0, 25 °C; Scatchard n fixed at 0.2 or 0.3; per base.
The subject of data set [8] is poly dGdC-poly dGdC (GC-DNA, p(dGdC)2) (DNA, polymer) GC. Kind of data set: fluorimetric titration, Scatchard. The note with it: Na+ (sodium cacodylate, I = 0.05 M); pH 7.0, 25 °C; Scatchard n fixed at 0.2 or 0.3; per base.
The subject of data set [9] is ct-DNA. Briefly: Thermal denaturation of ct-DNA (∆Tm). The data set is classed as binding, calf. To be noted: I = 50 mM. Here is the method: as §1, §2, §4
Where [10] appears, read: r = 0.2, pH 7.0, sodium cacodylate buffer.
Setting [11] is: r = 0.3, pH 7.0, sodium cacodylate buffer.

Take `C[n+]1ccc(-c2cc3ccc4cccc5ccc(c2)c3c45)cc1` [1M, 2-para-N-methylpyridinium pyrene]: the “Binding constant logKs AT-DNA” value in [1] turned out to be 5.9. Moreover, the “Cell morphology under continuous irradiation” value in the data set with A549 cells was “swelling and even blebbing morphology”. Also, the entries for the “∆Tm Poly dAdT-Poly dAdT” value with poly dAdT-poly dAdT (setting [10]) and in the data set with poly dAdT-poly dAdT (setting [11]) were 8 °C and 9 °C, respectively. The “Binding constant logKs GC-DNA” value in [2] is 7.0. Also, the “Binding constant logKs ct-DNA” value in the data set on ct-DNA [3] (pH 7, sodium cacodylate buffer) was 5.5. Besides, the “Binding constant logKs AU-RNA” value on AU-RNA (poly A-poly U) is given as 5.8. Besides, the values for the logKs in [4], in data set [7] and in [8] were 5.9, 5.8 and 7.0, respectively. Moreover, the “Cytotoxic effect relative to A549” value in the data set on WI-38 cells is on record as “somewhat more resilient”. Further, the “∆Tm” value in [5] was 3 °C. Further, the “∆Tm pApU” value in data set [6] (setting [10]) and in data set [6] (setting [11]) was 3 °C in each case.

With `C[n+]1ccc(-c2cc3ccc4cc(-c5cc[n+](C)cc5)cc5ccc(c2)c3c45)cc1` [2M], the “Binding constant logKs AT-DNA” value in data set [1] worked out at 7.1. In addition, the “Cell morphology under continuous irradiation” value in the data set on A549 cells was “swelling and even blebbing morphology”. The “∆Tm Poly dAdT-Poly dAdT” value in the data set on poly dAdT-poly dAdT (setting [10]) amounted to 31 °C; with poly dAdT-poly dAdT (setting [11]) it was 33 °C. In data set [2], the “Binding constant logKs GC-DNA” value came to 9.1. The “Binding constant logKs ct-DNA” value in the data set on ct-DNA [3] (pH 7, sodium cacodylate buffer) is recorded as 8.8. The “Binding constant logKs AU-RNA” value at AU-RNA (poly A-poly U) came out at 8.5. Moreover, the logKs in data set [4] worked out at 7.1; in data set [7], 8.5; in data set [8], 9.1. Also, in the data set on WI-38 cells, the “Cytotoxic effect relative to A549” value is reported as “somewhat more resilient”. Also, the “∆Tm” value in data set [5] amounted to 4 °C. Also, the “∆Tm pApU” value in data set [6] (setting [10]) amounted to 4 °C. In addition, the “∆Tm ct-DNA” value in the data set with ct-DNA [9] (setting [10]) and with ct-DNA [9] (setting [11]) was “^d >16 °C” throughout.

Consider `c1cc2ccc3cc(-c4ccncc4)cc4ccc(c1)c2c34` [compound 1], for which the “Binding constant logKs ct-DNA” value in the data set on ct-DNA [3] (pH 5, sodium cacodylate buffer) is reported as 5.3; in the data set with ct-DNA [3] (pH 7, sodium cacodylate buffer), “b”. Moreover, the “∆Tm ct-DNA” value in the data set with ct-DNA [9] (r = 0.1, pH 5.0, sodium cacodylate buffer) was found to be 0 °C; in the data set with ct-DNA [9] (r = 0.3, pH 5.0, sodium cacodylate buffer), 2 °C.

The values above are taken from paper PMC9696974 (Pharmaceutics, 2022).
